Here are results for 2 compounds from patent US20230248647A1, “SILICA HYDROGEL COMPOSITE AND ITS USE” (DelSiTech Oy, priority 2020, published 2023).

One data set is described as follows: Solubility in water. Type of data set: physicochemical. The note with it: corresponds to 0.019 mg/ml.
A short description of data set [1]: Particle size distribution analysis by laser diffraction (Sympatec HELOS H3973). Type of data set: physicochemical. The note with it: micronized particles. As to the method: For particle size distribution analysis, the non-active silica particles (which were used in silica hydrogel composite #29HG) were dispersed in ethanol, and the analysis was conducted using a Sympatec HELOS H3973 laser diffraction instrument. The particle size distribution for non-active silica particles is shown in Table 2 (D10, D50 and D90 means that 10%, 50%, and 90% of the particles are equal or smaller than the indicated size)
The particles size distribution analysis for micronized (described in Example 1) Anagrelide HCl particles was also conducted using a Sympatec HELOS H3973 laser diffraction instrument. The particle size was mainly between 1 and 200 micrometers, where D10 was 16.6 micrometers, D50 80.4 micrometers, and D90 155 micrometers.

Data set [2] in a line: In vivo pharmacokinetic experiment, oral and subcutaneous administration. Also noted: species or system male SD (Sprague Dawley) rats. As to conditions: for AUC(0-t) / Cmax / Tmax / half-life: male, Sprague-Dawley, rat, plasma. As to the method: Silica hydrogel composite #29HG was used as a depot for male SD (Sprague Dawley) rats (5 animals/dosing group) in subcutaneous (SC+a letter A-E referring to different groups) administration of Anagrelide, and for oral administration (PO). The oral dose was prepared by adding 18.00 mg of Anagrelide hydrochloride into […] of 10 w-% ethanol with vortexing and sonication to obtain a suspension with concentration of 0.5 mg/ml of Anagrelide hydrochloride. The oral dose (5 mg/kg) was provided only in 12 h study, and it was freshly made just prior to dosing. Both 12 hour and 10 d pharmacokinetic experiments were conducted for the silica hydrogel composite for 2 different anagrelide hydrochloride doses (17.5 mg/kg and 35 mg/kg), and 28 d experiment only for the dose of 35 mg/kg.
The bioanalysis was conducted by using LC-MS/MS. The desired serial concentrations of working solutions were achieved by diluting stock solution of analyte with 50% acetonitrile in water solution. 5 μL of working solutions (2, 5, 10, 20, 50, 100, 500, 1000, 5000, 10000 ng/mL) were added to 50 μL of the male blank SD Rat plasma to achieve calibration standards of 0.2-1000 ng/mL (0.2, 0.5, 1, 2, 5, 10, 50, 100, 500, 1000 ng/mL) in a total volume of 55 μL. Four quality control samples at 0.5 ng/mL, 1 ng/mL, 50 ng/mL and 800 ng/mL for plasma were prepared independently of those used for the calibration curves. These QC samples were prepared on the day of analysis in the same way as calibration standards. 55 μL of standards, 55 μL of QC samples and 55 μL of unknown samples (50 μL of plasma with 5 μL of blank solution) were added to 200 μL of acetonitrile containing IS mixture for precipitating protein respectively. Then the samples were vortexed for 30 s. After centrifugation at 4 degree Celsius, 4700 rpm for 15 min, the supernatant was diluted 3 times with water, and 10 μL of diluted supernatant was injected into the LC-MS/MS system for quantitative analysis. The mean plasma concentrations of Anagrelide Hydrochloride for 12 h experiment are shown in FIG. 4, and corresponding results for 10 d experiment in FIG. 5, and for 28 d experiment in FIG. 6.

For data set [3] the following is noted: cited from earlier work.
[4] abbreviates: po, 5 mg/kg, oral suspension 5 mg/kg, 12 h experiment.
The mark [5] stands for this setting: sc, 17.5 mg/kg, SCA, subcutaneous silica hydrogel composite #29HG depot 17.5 mg/kg, 12 h experiment.
Where [6] appears, read: sc, 17.5 mg/kg, SCB, subcutaneous silica hydrogel composite #29HG depot 17.5 mg/kg, 10 d experiment.
Setting [7] is: sc, 35 mg/kg, SCC, subcutaneous silica hydrogel composite #29HG depot 35 mg/kg, 12 h experiment.
[8] abbreviates: sc, 35 mg/kg, SCD, subcutaneous silica hydrogel composite #29HG depot 35 mg/kg, 10 d experiment.
Where [9] appears, read: sc, 35 mg/kg, SCE, subcutaneous silica hydrogel composite #29HG depot 35 mg/kg, 28 d experiment.

SMILES strings stand for the structures. Counter-ions that a name gives are not always drawn.

Usually AUC(0-t) stands for the area under the concentration-time curve up to a stated or last time point. Low values mean less exposure, high ones more exposure. The term Cmax denotes the highest concentration seen after dosing. In general, Tmax refers to the time from dosing to the highest level. In general, half-life refers to the time needed for the level to fall by half in the phase considered. Read a low half-life as fast loss. Regarding `O=C1CN2Cc3c(ccc(Cl)c3Cl)N=C2N1` [Anagrelide HCl, Anagrelide hydrochloride], in “Solubility in water”, the “solubility in water as weight-%” value is reported as 0.0019 weight-%. The compound also had a D10 in data set [1] of 16.6 micrometers. The same compound came in with a D50 in data set [1] of 80.4 micrometers. In data set [1], this compound came in with a D90 of 155 micrometers. In addition, the AUClast/D in data set [2] (PO, oral suspension 5 mg/kg, 12 h experiment) came out at 64 ± 47 ng·h/mL per mg/kg; in data set [2] (SCA, subcutaneous silica hydrogel composite #29HG depot 17.5 mg/kg, 12 h experiment) it was 1.67 ± 0.4 ng·h/mL per mg/kg; in data set [2] (SCB, subcutaneous silica hydrogel composite #29HG depot 17.5 mg/kg, 10 d experiment), 29.8 ± 12.5 ng·h/mL per mg/kg; in data set [2] (SCC, subcutaneous silica hydrogel composite #29HG depot 35 mg/kg, 12 h experiment) it was 0.99 ± 0.3 ng·h/mL per mg/kg; in data set [2] (SCD, subcutaneous silica hydrogel composite #29HG depot 35 mg/kg, 10 d experiment), 21.4 ± 9.1 ng·h/mL per mg/kg. Also, in data set [2] (SD rats, entire experiment (PO 5 mg/kg; SC #29HG depot 17.5 and 35 mg/kg)), the clinical symptoms result is “No abnormal clinical symptoms were observed”. Moreover, in data set [2] (delivered as solid particles in silica hydrogel composite, SC, SD rats), the “release behaviour from plasma concentration results” value is “sustained and controlled release is achieved”. The AUC(0-t) in data set [2] (setting [4]) was determined as 320 ± 235 ng·h/mL; in data set [2] (setting [5]), 29.2 ± 7.1 ng·h/mL; in data set [2] (setting [6]), 521 ± 218 ng·h/mL; in data set [2] (setting [7]) it was 34.5 ± 10.6 ng·h/mL; in data set [2] (setting [8]), 749 ± 320 ng·h/mL; in data set [2] (setting [9]), 1600 ng·h/mL. Moreover, the Cmax in data set [2] (setting [4]) came out at 62 ± 47 ng/mL; in data set [2] (setting [5]), 4.55 ± 1.41 ng/mL; in data set [2] (setting [6]), 3.58 ± 1.51 ng/mL; in data set [2] (setting [7]), 6.3 ± 4.2 ng/mL; in data set [2] (setting [8]) it was 5.29 ± 2.28 ng/mL. For the same compound, the Tmax turned out to be 3 ± 2 h in data set [2] (setting [4]); 1.1 ± 0.55 h in data set [2] (setting [5]); 96 ± 102 h in data set [2] (setting [6]); 0.8 ± 0.27 h in data set [2] (setting [7]); 154 ± 79 h in data set [2] (setting [8]); 188 h in data set [2] (setting [9]). Moreover, the half-life in data set [2] (setting [4]) was 1.3 ± 0.27 h; in data set [2] (setting [5]) it was 4.92 ± 0.85 h; in data set [2] (setting [7]), 7.03 ± 1.04 h; in data set [2] (setting [9]) it was 167 h. Also, the solubility in water in data set [3] was 19 µg/mL.
For `O=C1CN2Cc3c(ccc(Cl)c3Cl)N=C2N1` [Anagrelide], the “solubility of base form compared with Anagrelide HCl” value in data set [3] (water) was “even lower solubility than Anagrelide HCl”.
